In ChEMBL document CHEMBL5260810, “Inhibition of bromodomain-containing protein 9 for the prevention of epigenetically-defined drug resistance” (Bioorg Med Chem Lett, 2017):

System: not listed separately
Experiment: Cytotoxicity against human HNT-34 cells measured after 8 days
Assay type: functional, cell-based
Settings: HNT-34, 192 h

Row | SMILES | IC50
1 | C/C=C/Cn1cc(-c2ccc(C(C)(C)O)cc2OC)c2cc[nH]c2c1=O | 8.14 µM

System: LP-1
Experiment: Cytotoxicity against human LP-1 cells measured after 8 days
Assay type: functional, cell-based
Settings: LP-1, 192 h

Row | SMILES | IC50
2 | C/C=C/Cn1cc(-c2ccc(C(C)(C)O)cc2OC)c2cc[nH]c2c1=O | 19.5 µM

System: NCI-H1838
Experiment: Cytotoxicity against human NCI-H1838 cells measured after 8 days
Assay type: functional, cell-based
Settings: NCI-H1838, 192 h

Row | SMILES | IC50
3 | C/C=C/Cn1cc(-c2ccc(C(C)(C)O)cc2OC)c2cc[nH]c2c1=O | 20 µM

System: NCI-H1666
Experiment: Cytotoxicity against human NCI-H1666 cells measured after 8 days
Assay type: functional, cell-based
Settings: NCI-H1666, 192 h

Row | SMILES | IC50
4 | C/C=C/Cn1cc(-c2ccc(C(C)(C)O)cc2OC)c2cc[nH]c2c1=O | 20 µM

System: NCI-H146
Experiment: Cytotoxicity against human NCI-H146 cells measured after 8 days
Assay type: functional, cell-based
Settings: NCI-H146, 192 h

Row | SMILES | IC50
5 | C/C=C/Cn1cc(-c2ccc(C(C)(C)O)cc2OC)c2cc[nH]c2c1=O | 20 µM

System: not listed separately
Experiment: Cytotoxicity against human MOR cells measured after 8 days
Assay type: functional, cell-based
Settings: 192 h

Row | SMILES | IC50
6 | C/C=C/Cn1cc(-c2ccc(C(C)(C)O)cc2OC)c2cc[nH]c2c1=O | 20 µM

System: not listed separately
Experiment: Cytotoxicity against human NCI-H2106 cells measured after 8 days
Assay type: functional, cell-based
Settings: NCI-H2106, 192 h

Row | SMILES | IC50
7 | C/C=C/Cn1cc(-c2ccc(C(C)(C)O)cc2OC)c2cc[nH]c2c1=O | 20 µM

System: Raji
Experiment: Cytotoxicity against human Raji cells measured after 8 days
Assay type: functional, cell-based
Settings: 192 h

Row | SMILES | IC50
8 | C/C=C/Cn1cc(-c2ccc(C(C)(C)O)cc2OC)c2cc[nH]c2c1=O | 12.4 µM

System: NCI-H522
Experiment: Cytotoxicity against human NCI-H522 cells measured after 8 days
Assay type: functional, cell-based
Settings: NCI-H522, 192 h

Row | SMILES | IC50
9 | C/C=C/Cn1cc(-c2ccc(C(C)(C)O)cc2OC)c2cc[nH]c2c1=O | 20 µM

System: not listed separately
Experiment: Cytotoxicity against human VMRC-LCD cells measured after 8 days
Assay type: functional, cell-based
Settings: 192 h

Row | SMILES | IC50
10 | C/C=C/Cn1cc(-c2ccc(C(C)(C)O)cc2OC)c2cc[nH]c2c1=O | 20 µM

System: Granta-519
Experiment: Cytotoxicity against human Granta-519 cells measured after 8 days
Assay type: functional, cell-based
Settings: Granta-519, 192 h

Row | SMILES | IC50
11 | C/C=C/Cn1cc(-c2ccc(C(C)(C)O)cc2OC)c2cc[nH]c2c1=O | 20 µM

System: MDA-MB-157
Experiment: Cytotoxicity against human MDA-MB-157 cells measured after 8 days
Assay type: functional, cell-based
Settings: MDA-MB-157, 192 h

Row | SMILES | IC50
12 | C/C=C/Cn1cc(-c2ccc(C(C)(C)O)cc2OC)c2cc[nH]c2c1=O | 20 µM

System: SW948
Experiment: Cytotoxicity against human SW948 cells measured after 8 days
Assay type: functional, cell-based
Settings: SW948, 192 h

Row | SMILES | IC50
13 | C/C=C/Cn1cc(-c2ccc(C(C)(C)O)cc2OC)c2cc[nH]c2c1=O | 20 µM

System: WiDr
Experiment: Cytotoxicity against human WiDr cells measured after 8 days
Assay type: functional, cell-based
Settings: 192 h

Row | SMILES | IC50
14 | C/C=C/Cn1cc(-c2ccc(C(C)(C)O)cc2OC)c2cc[nH]c2c1=O | 20 µM

System: SK-MEL-28
Experiment: Cytotoxicity against human SK-MEL-28 cells measured after 8 days
Assay type: functional, cell-based
Settings: SK-MEL-28, 192 h

Row | SMILES | IC50
15 | C/C=C/Cn1cc(-c2ccc(C(C)(C)O)cc2OC)c2cc[nH]c2c1=O | 20 µM

System: GTL 16 cell line
Experiment: Cytotoxicity against human GTL 16 cell line measured after 8 days
Assay type: functional, cell-based
Settings: GTL 16, 192 h

Row | SMILES | IC50
16 | C/C=C/Cn1cc(-c2ccc(C(C)(C)O)cc2OC)c2cc[nH]c2c1=O | 20 µM

System: A549
Experiment: Cytotoxicity against human A549 cells measured after 8 days
Assay type: functional, cell-based
Settings: A549, 192 h

Row | SMILES | IC50
17 | C/C=C/Cn1cc(-c2ccc(C(C)(C)O)cc2OC)c2cc[nH]c2c1=O | 20 µM

System: ABC-1
Experiment: Cytotoxicity against human ABC-1 cells measured after 8 days
Assay type: functional, cell-based
Settings: ABC-1, 192 h

Row | SMILES | IC50
18 | C/C=C/Cn1cc(-c2ccc(C(C)(C)O)cc2OC)c2cc[nH]c2c1=O | 20 µM

System: BEN
Experiment: Cytotoxicity against human BEN cells measured after 8 days
Assay type: functional, cell-based
Settings: 192 h

Row | SMILES | IC50
19 | C/C=C/Cn1cc(-c2ccc(C(C)(C)O)cc2OC)c2cc[nH]c2c1=O | 20 µM

System: HCC44
Experiment: Cytotoxicity against human HCC44 cells measured after 8 days
Assay type: functional, cell-based
Settings: HCC44, 192 h

Row | SMILES | IC50
20 | C/C=C/Cn1cc(-c2ccc(C(C)(C)O)cc2OC)c2cc[nH]c2c1=O | 20 µM

System: HCC827
Experiment: Cytotoxicity against human HCC827 cells measured after 8 days
Assay type: functional, cell-based
Settings: HCC827, 192 h

Row | SMILES | IC50
21 | C/C=C/Cn1cc(-c2ccc(C(C)(C)O)cc2OC)c2cc[nH]c2c1=O | 20 µM

Target: Bromodomain-containing protein 3 (Homo sapiens, UniProt Q15059)
Experiment: Binding affinity to human partial length BRD3 bromodomain 2 (G306 to P416 residues) expressed in bacterial expression system by BROMOscan assay
Settings: not given

Sequence of Bromodomain-containing protein 3 (Q15059 whole entry, the tested form may be a part): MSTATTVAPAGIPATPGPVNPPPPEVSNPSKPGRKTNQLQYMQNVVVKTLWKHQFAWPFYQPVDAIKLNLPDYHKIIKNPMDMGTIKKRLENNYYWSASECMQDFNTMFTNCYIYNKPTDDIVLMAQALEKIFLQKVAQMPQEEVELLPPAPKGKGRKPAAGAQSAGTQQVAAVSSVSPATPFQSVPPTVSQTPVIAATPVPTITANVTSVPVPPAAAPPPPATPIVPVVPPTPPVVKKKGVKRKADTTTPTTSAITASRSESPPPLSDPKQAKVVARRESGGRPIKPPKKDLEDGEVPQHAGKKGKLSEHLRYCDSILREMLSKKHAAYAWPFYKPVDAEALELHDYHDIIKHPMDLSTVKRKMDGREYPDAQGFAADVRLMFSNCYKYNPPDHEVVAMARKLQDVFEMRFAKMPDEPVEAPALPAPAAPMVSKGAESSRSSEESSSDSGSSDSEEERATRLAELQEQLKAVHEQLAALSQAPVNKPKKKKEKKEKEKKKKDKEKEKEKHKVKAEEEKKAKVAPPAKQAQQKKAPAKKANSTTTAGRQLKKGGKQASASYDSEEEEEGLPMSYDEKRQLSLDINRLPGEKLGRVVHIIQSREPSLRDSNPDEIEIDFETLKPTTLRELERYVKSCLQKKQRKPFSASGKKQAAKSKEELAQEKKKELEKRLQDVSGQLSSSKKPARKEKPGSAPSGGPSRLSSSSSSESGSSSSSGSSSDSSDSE

Row | SMILES | Kd
22 | C/C=C/Cn1cc(-c2ccc(C(C)(C)O)cc2OC)c2cc[nH]c2c1=O | 4 µM

Target: SWI/SNF-related matrix-associated actin-dependent regulator of chromatin subfamily A member 2 (Homo sapiens, UniProt P51531)
Experiment: Binding affinity to human partial length SMARCA2 (S1377 to Q1486 residues) expressed in bacterial expression system by BROMOscan assay
Settings: not given

Sequence of SWI/SNF-related matrix-associated actin-dependent regulator of chromatin subfamily A member 2 (P51531 whole entry, the tested form may be a part): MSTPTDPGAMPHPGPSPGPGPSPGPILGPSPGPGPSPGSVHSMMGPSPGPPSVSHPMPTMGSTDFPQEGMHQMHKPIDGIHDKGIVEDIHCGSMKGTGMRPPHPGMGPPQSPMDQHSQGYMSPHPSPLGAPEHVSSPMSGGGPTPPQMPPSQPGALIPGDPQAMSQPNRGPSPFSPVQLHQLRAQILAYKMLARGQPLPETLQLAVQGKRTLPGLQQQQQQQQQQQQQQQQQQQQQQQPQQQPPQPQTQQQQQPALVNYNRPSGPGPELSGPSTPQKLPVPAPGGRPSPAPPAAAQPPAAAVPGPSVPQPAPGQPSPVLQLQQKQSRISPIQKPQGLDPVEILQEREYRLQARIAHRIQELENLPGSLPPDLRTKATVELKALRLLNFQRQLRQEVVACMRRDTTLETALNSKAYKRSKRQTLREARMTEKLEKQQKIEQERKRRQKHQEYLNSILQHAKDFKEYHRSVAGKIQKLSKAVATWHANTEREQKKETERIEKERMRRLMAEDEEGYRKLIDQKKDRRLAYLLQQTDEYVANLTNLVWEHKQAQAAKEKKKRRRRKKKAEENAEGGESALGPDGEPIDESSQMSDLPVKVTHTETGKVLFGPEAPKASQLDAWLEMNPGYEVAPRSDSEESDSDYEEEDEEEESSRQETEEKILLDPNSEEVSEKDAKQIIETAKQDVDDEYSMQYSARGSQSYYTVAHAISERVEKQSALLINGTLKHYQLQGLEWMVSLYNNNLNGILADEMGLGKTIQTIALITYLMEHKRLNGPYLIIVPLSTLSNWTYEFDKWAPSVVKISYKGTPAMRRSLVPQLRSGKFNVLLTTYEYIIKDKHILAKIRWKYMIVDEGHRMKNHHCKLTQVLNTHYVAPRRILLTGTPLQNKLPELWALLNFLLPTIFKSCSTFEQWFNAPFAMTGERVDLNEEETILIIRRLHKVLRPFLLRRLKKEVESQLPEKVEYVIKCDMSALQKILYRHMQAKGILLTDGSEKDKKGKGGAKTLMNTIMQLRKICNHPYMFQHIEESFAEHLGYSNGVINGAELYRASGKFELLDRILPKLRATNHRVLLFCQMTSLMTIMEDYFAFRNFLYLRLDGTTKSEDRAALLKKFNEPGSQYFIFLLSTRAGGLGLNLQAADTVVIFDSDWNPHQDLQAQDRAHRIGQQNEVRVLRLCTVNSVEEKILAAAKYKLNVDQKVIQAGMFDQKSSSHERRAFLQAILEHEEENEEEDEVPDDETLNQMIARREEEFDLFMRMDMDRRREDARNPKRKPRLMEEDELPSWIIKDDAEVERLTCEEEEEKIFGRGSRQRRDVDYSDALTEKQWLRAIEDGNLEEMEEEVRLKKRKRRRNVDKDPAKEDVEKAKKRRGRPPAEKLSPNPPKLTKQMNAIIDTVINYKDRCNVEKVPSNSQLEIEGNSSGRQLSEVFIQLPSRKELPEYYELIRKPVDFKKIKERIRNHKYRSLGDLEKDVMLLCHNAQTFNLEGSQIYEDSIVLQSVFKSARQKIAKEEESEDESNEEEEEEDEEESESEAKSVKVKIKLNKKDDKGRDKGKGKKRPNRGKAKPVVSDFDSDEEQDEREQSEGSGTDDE

Row | SMILES | Kd
23 | C/C=C/Cn1cc(-c2ccc(C(C)(C)O)cc2OC)c2cc[nH]c2c1=O | > 10 µM

Target: Cyclin-dependent kinase 5/CDK5 activator 1 (Homo sapiens) (UniProt Q00535+Q15078)
Experiment: Inhibition of CDK5/p25 (unknown origin) at 1 uM relative to control
Assay type: protein-complex assay
Settings: not given

Sequence of Cyclin-dependent kinase 5/CDK5 activator 1 (Homo sapiens) (Q00535 whole entry): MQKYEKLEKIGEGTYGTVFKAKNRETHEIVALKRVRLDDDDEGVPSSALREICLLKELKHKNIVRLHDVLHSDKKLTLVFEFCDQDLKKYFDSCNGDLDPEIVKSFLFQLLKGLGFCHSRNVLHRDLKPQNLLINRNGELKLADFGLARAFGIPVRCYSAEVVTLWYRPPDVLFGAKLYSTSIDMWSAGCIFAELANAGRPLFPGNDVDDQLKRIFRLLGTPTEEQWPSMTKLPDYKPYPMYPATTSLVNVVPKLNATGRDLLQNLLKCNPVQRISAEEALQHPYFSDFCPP
Sequence of Cyclin-dependent kinase 5/CDK5 activator 1 (Homo sapiens) (Q15078 99-307 partner limits assumed): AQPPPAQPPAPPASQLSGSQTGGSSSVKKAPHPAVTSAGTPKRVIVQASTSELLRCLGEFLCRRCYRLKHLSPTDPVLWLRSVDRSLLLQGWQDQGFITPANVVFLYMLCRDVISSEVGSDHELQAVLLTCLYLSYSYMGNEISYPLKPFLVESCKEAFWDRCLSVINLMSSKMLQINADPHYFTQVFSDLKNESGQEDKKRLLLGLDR

Row | SMILES | inhibition
24 | C/C=C/Cn1cc(-c2ccc(C(C)(C)O)cc2OC)c2cc[nH]c2c1=O | -0.5%

Target: T1, Ephrin type-A receptor 1 (Homo sapiens) (UniProt P21709)
T1 sequence (whole entry): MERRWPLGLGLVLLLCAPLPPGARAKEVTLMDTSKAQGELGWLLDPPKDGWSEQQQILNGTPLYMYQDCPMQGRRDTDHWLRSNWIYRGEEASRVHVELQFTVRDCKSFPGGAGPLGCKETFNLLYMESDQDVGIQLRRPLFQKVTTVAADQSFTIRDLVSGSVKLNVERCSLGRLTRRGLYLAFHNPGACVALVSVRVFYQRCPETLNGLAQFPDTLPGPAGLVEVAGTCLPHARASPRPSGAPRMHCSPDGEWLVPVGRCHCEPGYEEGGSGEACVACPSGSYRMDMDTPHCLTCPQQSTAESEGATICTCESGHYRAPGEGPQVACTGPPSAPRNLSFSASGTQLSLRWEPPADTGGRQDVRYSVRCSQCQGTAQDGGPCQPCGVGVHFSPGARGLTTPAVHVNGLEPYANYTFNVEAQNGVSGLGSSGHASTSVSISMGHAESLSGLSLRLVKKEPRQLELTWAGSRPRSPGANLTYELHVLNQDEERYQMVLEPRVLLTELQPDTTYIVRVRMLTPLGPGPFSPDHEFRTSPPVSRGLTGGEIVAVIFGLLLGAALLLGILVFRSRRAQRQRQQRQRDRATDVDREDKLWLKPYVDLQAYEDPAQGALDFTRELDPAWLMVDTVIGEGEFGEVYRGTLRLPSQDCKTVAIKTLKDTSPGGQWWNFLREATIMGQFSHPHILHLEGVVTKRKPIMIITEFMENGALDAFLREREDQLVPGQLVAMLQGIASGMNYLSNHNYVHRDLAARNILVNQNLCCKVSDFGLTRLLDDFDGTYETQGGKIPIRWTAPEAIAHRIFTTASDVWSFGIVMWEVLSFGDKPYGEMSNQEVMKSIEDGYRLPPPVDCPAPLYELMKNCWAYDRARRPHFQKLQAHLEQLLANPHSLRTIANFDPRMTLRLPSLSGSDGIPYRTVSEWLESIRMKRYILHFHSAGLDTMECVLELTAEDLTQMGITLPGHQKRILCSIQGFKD
Experiment: Inhibition of EphA1 (unknown origin) at 1 uM relative to control
Settings: not given

Row | SMILES | inhibition
25 | C/C=C/Cn1cc(-c2ccc(C(C)(C)O)cc2OC)c2cc[nH]c2c1=O | 4%

Target: D(1A) dopamine receptor (Homo sapiens) (UniProt P21728)
Experiment: Displacement of [3H]-SCH 23390 from human recombinant dopamine D1 receptor at 10 uM by scintillation counting 60 mins analysis relative to control
Settings: not given

Sequence of D(1A) dopamine receptor (Homo sapiens) (P21728 whole entry): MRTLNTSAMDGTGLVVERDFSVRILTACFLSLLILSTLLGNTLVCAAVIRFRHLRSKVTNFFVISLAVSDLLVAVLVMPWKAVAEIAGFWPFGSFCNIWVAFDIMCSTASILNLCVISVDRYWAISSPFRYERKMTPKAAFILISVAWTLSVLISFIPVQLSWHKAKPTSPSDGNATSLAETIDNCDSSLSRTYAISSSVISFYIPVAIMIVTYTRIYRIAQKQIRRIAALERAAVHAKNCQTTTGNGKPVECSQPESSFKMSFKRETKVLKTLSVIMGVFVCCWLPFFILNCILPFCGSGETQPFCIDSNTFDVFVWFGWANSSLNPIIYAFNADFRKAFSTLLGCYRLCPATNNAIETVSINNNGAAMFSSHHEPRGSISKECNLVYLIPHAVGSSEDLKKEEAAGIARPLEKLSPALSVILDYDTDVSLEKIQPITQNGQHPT

Row | SMILES | Activity
26 | C/C=C/Cn1cc(-c2ccc(C(C)(C)O)cc2OC)c2cc[nH]c2c1=O | 0%

Target: D(2) dopamine receptor (Homo sapiens) (UniProt P14416)
Experiment: Displacement of [3H]7-OH-DPAT from human recombinant dopamine D2S receptor at 10 uM after 60 mins by scintillation counting analysis relative to control
Settings: not given

Sequence of D(2) dopamine receptor (Homo sapiens) (P14416 whole entry): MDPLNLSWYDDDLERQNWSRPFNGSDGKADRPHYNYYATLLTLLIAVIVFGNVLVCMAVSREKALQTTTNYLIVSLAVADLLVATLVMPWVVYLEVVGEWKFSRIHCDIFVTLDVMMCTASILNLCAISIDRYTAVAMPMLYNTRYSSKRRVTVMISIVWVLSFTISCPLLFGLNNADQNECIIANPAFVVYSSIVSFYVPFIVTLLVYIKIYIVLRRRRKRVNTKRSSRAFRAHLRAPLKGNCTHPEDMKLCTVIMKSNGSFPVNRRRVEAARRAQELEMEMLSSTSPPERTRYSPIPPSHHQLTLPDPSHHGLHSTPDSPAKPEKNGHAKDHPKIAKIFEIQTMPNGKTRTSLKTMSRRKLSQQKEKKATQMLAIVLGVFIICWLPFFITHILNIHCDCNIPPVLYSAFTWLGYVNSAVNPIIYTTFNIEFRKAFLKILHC

Row | SMILES | Activity
27 | C/C=C/Cn1cc(-c2ccc(C(C)(C)O)cc2OC)c2cc[nH]c2c1=O | 6%

Target: T2, 5-hydroxytryptamine receptor 1A (Homo sapiens) (UniProt P08908)
T2 sequence (whole entry): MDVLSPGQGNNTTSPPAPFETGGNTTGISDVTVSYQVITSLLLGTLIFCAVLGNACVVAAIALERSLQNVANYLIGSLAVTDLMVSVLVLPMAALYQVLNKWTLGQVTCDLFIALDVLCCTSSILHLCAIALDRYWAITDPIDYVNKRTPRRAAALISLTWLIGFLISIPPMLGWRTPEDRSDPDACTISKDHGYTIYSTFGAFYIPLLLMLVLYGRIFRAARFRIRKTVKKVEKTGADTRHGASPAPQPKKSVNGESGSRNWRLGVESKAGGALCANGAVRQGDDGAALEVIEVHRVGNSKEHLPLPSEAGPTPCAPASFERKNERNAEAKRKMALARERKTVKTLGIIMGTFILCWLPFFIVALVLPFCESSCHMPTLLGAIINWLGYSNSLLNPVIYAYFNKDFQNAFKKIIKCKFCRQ
Experiment: Displacement of [3H]8-OH-DPAT from recombinant human 5-HT1A receptor at 10 uM after 60 mins by scintillation counting analysis relative to control
Settings: not given

Row | SMILES | Activity
28 | C/C=C/Cn1cc(-c2ccc(C(C)(C)O)cc2OC)c2cc[nH]c2c1=O | 11%
